ChEMBL document CHEMBL3085687, “Gymnopalynes A and B, chloropropynyl-isocoumarin antibiotics from cultures of the basidiomycete Gymnopus sp” (J Nat Prod, 2013)
pIC50: −log10 of the molar value. ≈ marks a conversion by molar mass, not a printed value. Calls of active or inactive are those of the source. The calls are words filed in the database; no cut-off is given here.

Assays:
Escherichia coli [1] = test: Antibacterial activity against Escherichia coli DSM 1116 assessed as growth inhibition up to 66.6 ug/mL; type: functional, organism-based
Candida albicans [2] = test: Antifungal activity against Candida albicans DSM 1665 assessed as growth inhibition up to 66.6 ug/mL; type: functional, organism-based
Paenibacillus polymyxa [3] = test: Antibacterial activity against Paenibacillus polymyxa DSM 36 assessed as growth inhibition up to 66.6 ug/mL; type: functional
Pseudomonas aeruginosa [4] = test: Antibacterial activity against Pseudomonas aeruginosa DSM 50071 assessed as growth inhibition; type: functional
Nocardia sp. [5] = test: Antibacterial activity against Nocardia sp. DSM 43069 assessed as growth inhibition; type: functional
Mucor hiemalis = test: Antifungal activity against Mucor hiemalis DSM 2656 assessed as growth inhibition; type: functional
[6] = Antifungal activity against Penicillium capsulatum DSM 2210 assessed as growth inhibition up to 66.6 ug/mL; type: functional
Amorphotheca resinae [7] = test: Antifungal activity against Hormoconis resinae DSM 1203 assessed as growth inhibition; type: functional
Aspergillus clavatus [8] = test: Antifungal activity against Aspergillus clavatus DSM 816 assessed as growth inhibition; type: functional
L929 = test: Cytotoxicity against mouse L929 cells; type: cell-based
Pimelobacter simplex [9] = test: Antibacterial activity against Nocardioides simplex DSM 20130 assessed as growth inhibition; type: functional
[10] = tested on: Mycolicibacterium diernhoferi; test: Antibacterial activity against Mycobacterium diernhoferi DSM 43524 assessed as growth inhibition up to 66.6 ug/mL; type: functional, organism-based
Eremothecium coryli [11] = test: Antifungal activity against Nematospora coryli DSM 6981 assessed as growth inhibition; type: functional
[12] = tested on: Schizosaccharomyces pombe; test: Antifungal activity against Schizosaccharomyces pombe DSM 70572 assessed as growth inhibition; type: functional
[13] = Antifungal activity against Trichosporon oleaginosus DSM 11815 assessed as growth inhibition; type: functional; details: Cutaneotrichosporon oleaginosum
Wickerhamomyces anomalus [14] = test: Antifungal activity against Pichia anomala DSM 6766 assessed as growth inhibition up to 66.6 ug/mL; type: functional, organism-based
Micrococcus luteus [15] = test: Antibacterial activity against Micrococcus luteus DSM 20030 assessed as growth inhibition up to 66.6 ug/mL; type: functional, organism-based; details: NCTC 2665
Rhodotorula glutinis [16] = test: Antifungal activity against Rhodotorula glutinis DSM 10134 assessed as growth inhibition; type: functional
[17] = tested on: Chromobacterium violaceum; test: Antibacterial activity against Chromobacterium violaceum DSM 30191 assessed as growth inhibition; type: functional
Staphylococcus aureus [18] = test: Antibacterial activity against Staphylococcus aureus DSM 346 assessed as growth inhibition up to 66.6 ug/mL; type: functional, organism-based
Paenibacillus polymyxa [19] = test: Antibacterial activity against Paenibacillus polymyxa DSM 36 assessed as growth inhibition; type: functional
Staphylococcus aureus [20] = test: Antibacterial activity against Staphylococcus aureus DSM 346 assessed as growth inhibition; type: functional
[21] = tested on: Mycolicibacterium diernhoferi; test: Antibacterial activity against Mycobacterium diernhoferi DSM 43524 assessed as growth inhibition; type: functional
Micrococcus luteus [22] = test: Antibacterial activity against Micrococcus luteus DSM 20030 assessed as growth inhibition; type: functional; details: NCTC 2665
Escherichia coli [23] = test: Antibacterial activity against Escherichia coli DSM 1116 assessed as growth inhibition; type: functional
Wickerhamomyces anomalus [24] = test: Antifungal activity against Pichia anomala DSM 6766 assessed as growth inhibition; type: functional, organism-based
[25] = Antifungal activity against Penicillium capsulatum DSM 2210 assessed as growth inhibition; type: functional
Candida albicans [26] = test: Antifungal activity against Candida albicans DSM 1665 assessed as growth inhibition; type: functional, organism-based
Amorphotheca resinae [27] = test: Antifungal activity against Hormoconis resinae DSM 1203 assessed as growth inhibition up to 66.6 ug/mL; type: functional, organism-based
[28] = tested on: Schizosaccharomyces pombe; test: Antifungal activity against Schizosaccharomyces pombe DSM 70572 assessed as growth inhibition up to 66.6 ug/mL; type: functional, organism-based
Aspergillus clavatus [29] = test: Antifungal activity against Aspergillus clavatus DSM 816 assessed as growth inhibition up to 66.6 ug/mL; type: functional, organism-based
Pseudomonas aeruginosa [30] = test: Antibacterial activity against Pseudomonas aeruginosa DSM 50071 assessed as growth inhibition up to 66.6 ug/mL; type: functional, organism-based
Rhodotorula glutinis [31] = test: Antifungal activity against Rhodotorula glutinis DSM 10134 assessed as growth inhibition up to 66.6 ug/mL; type: functional, organism-based
Pimelobacter simplex [32] = test: Antibacterial activity against Nocardioides simplex DSM 20130 assessed as growth inhibition up to 66.6 ug/mL; type: functional
Nocardia sp. [33] = test: Antibacterial activity against Nocardia sp. DSM 43069 assessed as growth inhibition up to 66.6 ug/mL; type: functional, organism-based
[34] = Antifungal activity against Trichosporon oleaginosus DSM 11815 assessed as growth inhibition up to 66.6 ug/mL; type: functional; details: Cutaneotrichosporon oleaginosum
Eremothecium coryli [35] = test: Antifungal activity against Nematospora coryli DSM 6981 assessed as growth inhibition up to 66.6 ug/mL; type: functional, organism-based

Molecule | growth inhibition (GI) (Escherichia coli [1]) | growth inhibition (GI) (Candida albicans [2]) | growth inhibition (GI) (Paenibacillus polymyxa [3]) | MIC (Pseudomonas aeruginosa [4]) [µg/mL] | MIC (Nocardia sp. [5]) [µg/mL] | MIC (Mucor hiemalis) [µg/mL] | growth inhibition (GI) [6] | MIC (Amorphotheca resinae [7]) [µg/mL] | MIC (Aspergillus clavatus [8]) [µg/mL] | pIC50 (L929) | MIC (Pimelobacter simplex [9]) [µg/mL] | growth inhibition (GI) [10] | MIC (Eremothecium coryli [11]) [µg/mL] | MIC [12] [µg/mL] | MIC [13] [µg/mL] | growth inhibition (GI) (Wickerhamomyces anomalus [14]) | growth inhibition (GI) (Micrococcus luteus [15]) | MIC (Rhodotorula glutinis [16]) [µg/mL] | MIC [17] [µg/mL] | growth inhibition (GI) (Staphylococcus aureus [18]) | also measured
O=c1oc(C#CCCl)cc2ccccc12 | inactive | inactive | inactive | 67 (≈ 306 µM) | 67 (≈ 306 µM) | 16.6 (≈ 75.9 µM) | inactive | 33.3 (≈ 152 µM) | 16.6 (≈ 75.9 µM) | 5.43 | 33.3 (≈ 152 µM) | inactive | 16.6 (≈ 75.9 µM) | 16.6 (≈ 75.9 µM) | 33.3 (≈ 152 µM) | inactive | inactive | 33.3 (≈ 152 µM) | 33.3 (≈ 152 µM) | inactive | –
CN(C)[C@@H]1C(O)=C(C(N)=O)C(=O)[C@@]2(O)C(O)=C3C(=O)c4c(O)cccc4[C@@](C)(O)[C@H]3[C@H](O)[C@@H]12.Cl [OXYTETRACYCLINE HYDROCHLORIDE] | – | – | – | – | 0.25 | – | – | – | – | – | 16.6 | – | – | – | – | – | – | – | 1 | – | MIC (Paenibacillus polymyxa [19]): 6.7 µg/mL; MIC (Staphylococcus aureus [20]): ≤ 0.25 µg/mL; MIC [21]: ≤ 0.25 µg/mL; MIC (Micrococcus luteus [22]): 2.1 µg/mL; MIC (Escherichia coli [23]): 1 µg/mL
NYSTATIN | – | – | – | – | – | 2.1 | – | < 0.25 | 2.1 | – | – | – | 3.3 | 33.3 | 1 | – | – | 0.52 | – | – | MIC (Wickerhamomyces anomalus [24]): 4.2 µg/mL; MIC [25]: 16.6 µg/mL; MIC (Candida albicans [26]): 4.2 µg/mL
O=C1O[C@H](C#CCCl)Cc2ccccc21 | inactive | inactive | inactive | – | – | 33.3 (≈ 151 µM) | inactive | – | – | 4.85 | – | inactive | – | – | – | inactive | inactive | – | 33.3 (≈ 151 µM) | inactive | growth inhibition (GI) (Amorphotheca resinae [27]): inactive; growth inhibition (GI) [28]: inactive; growth inhibition (GI) (Aspergillus clavatus [29]): inactive; growth inhibition (GI) (Pseudomonas aeruginosa [30]): inactive; growth inhibition (GI) (Rhodotorula glutinis [31]): inactive; growth inhibition (GI) (Pimelobacter simplex [32]): inactive; growth inhibition (GI) (Nocardia sp. [33]): inactive; growth inhibition (GI) [34]: inactive; growth inhibition (GI) (Eremothecium coryli [35]): inactive
GENTAMICIN | – | – | – | 67 | – | – | – | – | – | – | – | – | – | – | – | – | – | – | – | – | –
